Measurements as given in ChEMBL document CHEMBL2010682, “Asperolides A-C, tetranorlabdane diterpenoids from the marine alga-derived endophytic fungus Aspergillus wentii EN-48” (J Nat Prod, 2012).
Values after ≈ are worked out from the molar mass of the structure shown. Active and inactive are the calls of the source. No cut-off for these calls is given here.

Tests used:
SW1990 = experiment: Cytotoxicity against human SW1990 cells; format: functional, cell-based
HepG2 = experiment: Cytotoxicity against human HepG2 cells; format: functional, cell-based
Candida albicans = experiment: Antifungal activity against Candida albicans after 18 hrs by broth microdilution method; format: functional
NCI-H460 = experiment: Cytotoxicity against human NCI-H460 cells; format: functional, cell-based
HeLa = experiment: Cytotoxicity against human HeLa cells; format: functional, cell-based
MDA-MB-231 = experiment: Cytotoxicity against human MDA-MB-231 cells; format: functional, cell-based
MCF7 = experiment: Cytotoxicity against human MCF7 cells; format: functional, cell-based
SMMC-7721 = experiment: Cytotoxicity against human SMMC7721 cells; format: functional, cell-based
Pseudomonas fluorescens = experiment: Antibacterial activity against Pseudomonas fluorescens after 18 hrs by broth microdilution method; format: functional
[1] = test system: Staphylococcus epidermidis; experiment: Antibacterial activity against Staphylococcus epidermidis after 18 hrs by broth microdilution method; format: functional
Staphylococcus aureus = experiment: Antibacterial activity against methicillin-resistant Staphylococcus aureus after 18 hrs by broth microdilution method; format: functional
Pseudomonas aeruginosa = experiment: Antibacterial activity against Pseudomonas aeruginosa after 18 hrs by broth microdilution method; format: functional
[2] = Homo sapiens, SW1990, read-out: IC50
[3] = Homo sapiens, NCI-H460, read-out: IC50
[4] = Homo sapiens, HeLa, read-out: IC50
[5] = Homo sapiens, MDA-MB-231, read-out: IC50
[6] = Homo sapiens, MCF7, read-out: IC50
[7] = Homo sapiens, HepG2, read-out: IC50
[8] = Homo sapiens, SMMC-7721, read-out: IC50

| Molecule | IC50 (SW1990; [2]) | IC50 (HepG2; hepg2) | MIC (Candida albicans) | IC50 (NCI-H460; [3]) | IC50 (HeLa; [4]) | IC50 (MDA-MB-231; [5]) | IC50 (MCF7; [6]) | IC50 (HepG2; [7]) | IC50 (SMMC-7721; [8]) | other results |
| --- | --- | --- | --- | --- | --- | --- | --- | --- | --- | --- |
| C[C@]12C(=O)O[C@@H]3C=C4COC(=O)C=C4[C@@](C)(C=C[C@@H]1O)[C@@H]32 | 63 µM | Not Active | 16 µg/mL (≈ 55.5 µM) | 42 µM | 63 µM | 42 µM | 38 µM | – | – | – |
| NYSTATIN | – | – | 2 µg/mL | – | – | – | – | – | – | – |
| C[C@@]12C3=CC(=O)OCC3=C[C@H]3OC(=O)[C@](C)([C@H]31)[C@@H](O)[C@H]1O[C@H]12 [WENTILACTONE A] | 42 µM | – | inactive | 28 µM | 52 µM | – | 69 µM | 35 µM | 28 µM | – |
| O=c1[nH]cc(F)c(=O)[nH]1 [FLUOROURACIL] | 123 µM | – | – | 8 µM | 108 µM | 62 µM | – | 108 µM | 15 µM | – |
| C[C@@]12C3=CC(=O)OCC3=C[C@H]3OC(=O)[C@](C)([C@H]31)[C@H]1O[C@H]1[C@H]2O [ASPEROLIDE B] | 69 µM | Not Active | – | 63 µM | 56 µM | 35 µM | 63 µM | – | – | – |
| C=C1[C@@H](O)C[C@@H]2[C@](C)(CCC[C@]2(C)C(=O)O)[C@H]1CC(=O)O | – | Not Active | inactive | – | – | – | – | – | – | IC50 (SW1990; sw1990): Not Active; IC50 (NCI-H460; nci-h460): Not Active; IC50 (HeLa; hela): Not Active; IC50 (SMMC-7721; smmc-7721): Not Active; IC50 (MDA-MB-231; mda-mb-231): Not Active; IC50 (MCF7; mcf7): Not Active |
| C[C@@]12C[C@@H](O)C[C@]3(C)C4=CC(=O)OCC4=C[C@@H](OC1=O)[C@@H]23 [WENTILACTONE B] | 24 µM | – | inactive | 24 µM | 42 µM | – | 56 µM | 38 µM | 17 µM | – |
| COc1cccc2c1C(=O)c1c(O)c3c(c(O)c1C2=O)C[C@@](O)(C(=O)CO)C[C@@H]3O[C@H]1C[C@H](N)[C@H](O)[C@H](C)O1 [DOXORUBICIN] | – | – | – | – | 5 µM | 4 µM | 7 µM | 7 µM | 172 µM | – |
| C[C@]12C3=CC(=O)OCC3=C[C@H]3OC(=O)[C@@](C)(C=C[C@H]1O)[C@H]32 [ASPEROLIDE A] | 69 µM | – | inactive | 42 µM | 97 µM | – | – | 63 µM | 52 µM | IC50 (MCF7; mcf7): Not Active |
| CC1(C)S[C@@H]2[C@H](NC(=O)[C@H](N)c3ccccc3)C(=O)N2[C@H]1C(=O)O [AMPICILLIN] | – | – | – | – | – | – | – | – | – | MIC (Pseudomonas fluorescens): 2 µg/mL (≈ 5.72 µM); MIC [1]: 4 µg/mL (≈ 11.4 µM); MIC (Staphylococcus aureus): 8 µg/mL (≈ 22.9 µM); MIC (Pseudomonas aeruginosa): 4 µg/mL (≈ 11.4 µM) |
